For the assay, the system named is Sarcoma 180 ascites. In words: S180a screening (Sarcoma 180 ascites tumor model), increase in life span. Type of assay: in vivo, CFW mice. To be noted: for Surv.: survivors on day of evaluation. The method, then: CFW mice, averaging 20 g, are innoculated on day zero with 0.2 mL of a freshly prepared saline suspension (0.15 M NaCI) containing 1 × 10^7 tumor cells/mL, or a total of 2 x 10^6 cells. On day I, the mice are injected with the test compound in the selected medium (usually water). Six mice are used per test dose, with six doses normally being run.
Also, on day one, two types of controls (6 mice/set are employed: (1) Normal (1 set): 0.5 mL of the solvent medium used for the test compound, and (2) Positive control (1 set): cis-[Pt(NH3)2Cl2] in saline at 8 mg/kg.
The effectiveness of a compound is measured in terms of the increase in life span (ILS) of the test animals relative to the controls calculated from the day of tumor inoculation (day zero). The day of evaluation is arbitrarily taken as that day corresponding to twice the mean life-span of the normal controls. This sets a practical upper limit of 100% on the ILS attainable. For calculation purposes, survivors on the day of evaluation are considered to have died on that day. The % ILS is formulated as: [formula]
ILS values above 50% represent activity. The positive controls must have an ILS of ≧ 50% for the test to be valid.

Setting [1] is: dose 20.00 mg/kg on day 1, vehicle water.
[2] abbreviates: dose 40.00 mg/kg on day 1, vehicle water.
Setting [3] is: dose 80.00 mg/kg on day 1, vehicle water.
[4] abbreviates: dose 160.00 mg/kg on day 1, vehicle water.
The mark [5] stands for this setting: dose 10.00 mg/kg on day 1, vehicle water.
Setting [6] is: dose 320.00 mg/kg on day 1, vehicle water.
The mark [7] stands for this setting: dose 5.00 mg/kg on day 1, vehicle water, pH7.
[8] abbreviates: dose 10.00 mg/kg on day 1, vehicle water, pH7.
The mark [9] stands for this setting: dose 20.00 mg/kg on day 1, vehicle water, pH7.
Setting [10] is: dose 40.00 mg/kg on day 1, vehicle water, pH7.
Setting [11] is: dose 80.00 mg/kg on day 1, vehicle water, pH7.
[12] abbreviates: dose 160.00 mg/kg on day 1, vehicle water, pH7.

As for `CC(N)CN.CC1C(=O)[O][Pt][O]P1(=O)[O-].[Na+]` (mixture of isomers) [Ex 12, Na[Pt(pn)(2-phosphonopropionate)]], the “%ILS” value is, setting by setting: under setting [1], 20%; under setting [2], 24%; under setting [3], 40%; under setting [4], 53%. In addition, the Surv. reads like this: under setting [1], 0/ 6; under setting [2], 0/ 6; under setting [3], 0/ 6; under setting [4], 1/ 6.

With `N.N.O=C1[O][Pt][O]P(=O)([O-])C1c1ccccc1.[Na+]` (racemic) [Ex 7, Na[cis-Pt(NHs)2(2-phosphonophenylacetate)]], the “%ILS” value by setting is: under setting [1], 14%; under setting [2], 26%; under setting [3], 71%; under setting [4], 28%. Further, the Surv. runs as follows: under setting [1], 0/ 6; under setting [2], 0/ 6; under setting [3], 2/ 6; under setting [4], 0/ 6.

Consider `CC1C(=O)[O][Pt][O]P1(=O)[O-].N.N.[Na+]` (racemic) [Ex 15, Na[cis-Pt(NH3)2(2-phosphonopropionate)]], for which the “%ILS” value is 16% under setting [5]; 1% under setting [1]; -7% under setting [2]; -80% under setting [3]; -80% under setting [4]. The Surv. is 1/ 6 under setting [5]; 0/ 6 under setting [1]; 0/ 6 under setting [2]; 0/ 6 under setting [3]; 0/ 6 under setting [4].

Consider `CCCC1C(=O)[O][Pt][O]P1(=O)[O-].N.N.[Na+]` (racemic) [Ex 19, Na[cis-Pt(NH3)2(2-phosphonovalerate)]], for which the “%ILS” value under setting [1] is reported as -74%, the “%ILS” value under setting [2] was -85%, the “%ILS” value under setting [3] is -95% and the “%ILS” value under setting [4] is on record as -95%. Also, the Surv. under setting [1] is listed as 0/ 6, the Surv. under setting [2] is recorded as 0/ 6, the Surv. under setting [3] is listed as 0/ 6 and the Surv. under setting [4] was 0/ 6.

Regarding `CC(C)N.CC(C)N.O=C1CP(=O)([O-])[O][Pt][O]1.[Na+]` [Ex 9, Na[cis-Pt(i-PrNH2)2(phosphonoacetate)]], the “%ILS” value was 1% under setting [1]; -2% under setting [2]; -4% under setting [3]; 15% under setting [4]; 17% under setting [6]. Besides, the Surv. runs as follows: under setting [1], 0/ 6; under setting [2], 0/ 6; under setting [3], 0/ 6; under setting [4], 0/ 6; under setting [6], 0/ 6.

Turning to `NCCN.O=C1[O][Pt][O]P1(=O)O` [Ex 13, H[Pt(en)(phosphonoformate)]], the “%ILS” value reads like this: under setting [7], 9%; under setting [8], 31%; under setting [9], 63%; under setting [10], 93%; under setting [11], 58%; under setting [12], -74%. Also, the Surv. under setting [7] is 0/ 6; the Surv. under setting [8] is 1/ 6; the Surv. under setting [9] is 1/ 6; the Surv. under setting [10] is on record as 5/ 6; the Surv. under setting [11] was 2/ 6; the Surv. under setting [12] was 0/ 6.
